Measured values reported in patent US9528090B2, “Differentiation of human embryonic stem cells” (Janssen Biotech, Inc., priority 2010, dated 2016).

Tested on: human embryonic stem cells line H1
Test: Definitive endoderm differentiation of H1 cells in FBS medium (GDF8/GSK3B inhibitor) with IGF or insulin: FACS and real-time PCR
Type: cell-based
Details: in the presence of FBS, 10-100 ng/ml, day 4
Procedure: Cells of the human embryonic stem cells line H1 (p40-p52) were seeded as single cells at a density of 100000 cells/cm^2 on MATRIGEL® (1:30 dilution) (BD Biosciences; Cat #356231)-coated dishes in MEF-CM (mouse embryonic fibroblast conditioned media) supplemented with 16 ng/ml of FGF2 (Catalog#100-18B, PeproTech, NJ) and 10 μM of Y27632 (Rock inhibitor, Catalogue#Y0503, Sigma, Mo.). 72 hrs post seeding, cultures were differentiated into definitive endoderm (DE) as follows: • a. with MCDB-131 (Catalogue#10372-019, Invitrogen, CA) medium supplemented with 0.2% FBS (Catalogue#SH30070.03, Hyclone, UT), 0.0025 g/ml sodium bicarbonate (Catalogue #S3187, Sigma, Mo.), 1× GlutaMax™ (Catalogue #35050-079, Invitrogen, Ca) and 100 ng/ml GDF8 (Catalogue#120-00, PeproTech, NJ) plus 2.5 μM of the GSK3B inhibitor 14-Prop-2-en-1-yl-3,5,7,14,17,23,27-heptaazatetracyclo[19.3.1.1˜2,6˜0.1˜8,12˜]heptacosa-1(25),2(27),3,5,8(26),9,11,21,23-nonaen-16-one for one day, then • b. MCDB-131 medium supplemented with FBS, sodium bicarbonate, Glutamax, and 100 ng/ml GDF8 for an additional three days.
0.5% FBS was used for day 2 and 2% FBS was used for days 3-4. Besides regular FBS, heat treated FBS (Catalogue#F4135, Sigma, Mo.) and charcoal stripped treated FBS (Catalogue#F6765, Sigma, Mo.) were also tested. Some of the FBS treated cultures were also treated with various concentrations of IGF (10-100 ng/ml) or insulin (10-100 ng/ml).
At day 4, samples were collected for analysis by FACS and real-time PCR.

Which “expression of the pluripotency marker NANOG” value does the source give for insulin here?
The value was “upregulated”.

And the “markers associated with definitive endoderm such as SOX17 and CCXR4” value?
Its value is “dose dependently down regulated”.
